Data: the supplement of paper PMC10307832

Assays:
Test in all cases: relative viability (nuclei count vs DMSO), 5 days (fraction); higher = more cells survive
[1] = compound: COc1cc(-c2nn([C@H]3CC[C@H](N4CCN(C(C)=O)CC4)CC3)c3ncnc(N)c23)ccc1NC(=O)c1cc2ccccc2n1C + CCNC(=O)c1noc(-c2cc(C(C)C)c(O)cc2O)c1-c1ccc(CN2CCOCC2)cc1 [Luminespib] (partner 0.01 µM)
In short: (§1)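 Lung cancer cell lines in 1536-well plates were dosed by pin tool the day after seeding, either with one drug alone or with a fixed anchor-drug dose plus five library-drug doses (not always all listed) in √10 steps. After 5 days, cells were fixed and their nuclei stained in one step (final 0.05% Triton X-100, 1% formaldehyde, 1 ug/ml Hoechst), then counted on 4× images. Relative viability is the nuclei count in treated wells divided by that in vehicle wells. Values are medians of duplicate plates.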

[2] = compound: COc1cc(-c2nn([C@H]3CC[C@H](N4CCN(C(C)=O)CC4)CC3)c3ncnc(N)c23)ccc1NC(=O)c1cc2ccccc2n1C + CS(=O)(=O)CCNCc1ccc(-c2ccc3ncnc(Nc4ccc(OCc5cccc(F)c5)c(Cl)c4)c3c2)o1 [Lapatinib] (partner 2 µM)
In short: as §1

Midostaurin + Pemetrexed = compound: CO[C@@H]1[C@H](N(C)C(=O)c2ccccc2)C[C@H]2O[C@]1(C)n1c3ccccc3c3c4c(c5c6ccccc6n2c5c31)C(=O)NC4 [Midostaurin] + Nc1nc2[nH]cc(CCc3ccc(C(=O)N[C@@H](CCC(=O)O)C(=O)O)cc3)c2c(=O)[nH]1 [Pemetrexed] (partner 0.2 µM)
In short: as §1

Midostaurin + Luminespib = compound: CO[C@@H]1[C@H](N(C)C(=O)c2ccccc2)C[C@H]2O[C@]1(C)n1c3ccccc3c3c4c(c5c6ccccc6n2c5c31)C(=O)NC4 [Midostaurin] + CCNC(=O)c1noc(-c2cc(C(C)C)c(O)cc2O)c1-c1ccc(CN2CCOCC2)cc1 [Luminespib] (partner 0.01 µM)
In short: as §1

[3] = compound: COc1cc(-c2nn([C@H]3CC[C@H](N4CCN(C(C)=O)CC4)CC3)c3ncnc(N)c23)ccc1NC(=O)c1cc2ccccc2n1C + COc1cccc2cc(-c3nc([C@H]4CC[C@H](C(=O)O)CC4)n4ncnc(N)c34)[nH]c12 [OSI-027] (partner 0.5 µM)
In short: as §1

Row | Cell Line | relative viability ([1]; first compound 0.0128 µM) | relative viability ([1]; first compound 0.04048 µM) | relative viability ([1]; first compound 0.128 µM) | relative viability ([1]; first compound 1.28 µM) | relative viability ([2]; first compound 0.0128 µM) | relative viability ([2]; first compound 0.04048 µM) | relative viability ([2]; first compound 0.128 µM) | relative viability ([2]; first compound 1.28 µM) | relative viability (Midostaurin + Pemetrexed; first compound 0.01 µM) | relative viability (Midostaurin + Pemetrexed; first compound 0.03162 µM) | relative viability (Midostaurin + Pemetrexed; first compound 0.1 µM) | relative viability (Midostaurin + Pemetrexed; first compound 0.3162 µM) | relative viability (Midostaurin + Luminespib; first compound 0.01 µM) | relative viability (Midostaurin + Luminespib; first compound 0.03162 µM) | relative viability (Midostaurin + Luminespib; first compound 0.1 µM) | relative viability (Midostaurin + Luminespib; first compound 0.3162 µM) | relative viability ([3]; first compound 0.0128 µM) | relative viability ([3]; first compound 0.04048 µM) | relative viability ([3]; first compound 0.128 µM) | relative viability ([3]; first compound 1.28 µM)
1 | COR-L 105 | 0.641 | 0.707 | 0.737 | 0.479 | 0.3 | 0.327 | 0.352 | 0.31 | 1.15 | 0.945 | 1.11 | 0.873 | 0.597 | 0.686 | 0.777 | 0.621 | 0.59 | 0.799 | 0.636 | 0.343
2 | EKVX | 0.864 | 0.988 | 0.795 | 0.631 | 0.217 | 0.203 | 0.189 | 0.154 | 0.514 | 0.349 | 0.379 | 0.404 | 0.883 | 0.868 | 0.823 | 0.749 | 0.765 | 0.853 | 0.618 | 0.54
3 | EMC-BAC-2 | 1.21 | 1.18 | 1.23 | 1.06 | 0.909 | 0.935 | 0.842 | 0.801 | 0.407 | 0.431 | 0.383 | 0.457 | 1.11 | 1.05 | 0.898 | 1.16 | 0.347 | 0.531 | 0.385 | 0.352
4 | EPLC-272H | 0.331 |  | 0.257 | 0.209 | 0.815 | 0.891 | 0.997 | 0.86 | 0.229 | 0.357 | 0.256 | 0.256 | 0.323 |  | 0.333 | 0.48 | 0.27 |  | 0.293 | 0.264
5 | H3255 | 0.959 | 1.06 | 0.848 | 0.701 | 0.294 | 0.27 | 0.238 | 0.176 | 0.571 | 0.494 | 0.529 | 0.579 | 1.14 | 0.848 | 0.779 | 0.848 | 0.564 | 0.476 | 0.573 | 0.552
6 | HARA | 0.784 | 1.03 | 0.516 | 0.296 | 0.888 | 0.858 | 0.563 | 0.813 | 0.225 | 0.309 | 0.222 | 0.239 | 0.917 | 0.712 | 0.681 | 0.76 | 0.489 | 0.312 | 0.482 | 0.248
7 | HCC-15 | 0.818 | 0.302 | 0.224 | 0.23 | 1.08 | 0.726 | 0.87 | 0.896 | 0.22 | 0.229 | 0.238 | 0.199 | 0.305 | 0.38 | 0.308 | 0.165 | 0.832 | 0.463 | 0.616 | 0.586
8 | HCC-44 | 1.21 | 1.27 | 1.04 | 1.01 | 1.08 | 1.21 | 0.937 | 1.23 | 0.604 | 0.628 | 0.657 | 0.663 |  | 1.1 | 0.964 | 1.11 | 0.477 | 0.528 | 0.549 | 0.484
9 | HCC-827 | 0.633 | 0.66 | 0.816 | 0.203 | 0.192 | 0.172 | 0.182 | 0.204 | 0.249 | 0.251 | 0.241 | 0.255 | 0.51 | 0.644 | 0.709 | 0.813 | 0.817 | 0.658 | 0.666 | 0.744
10 | HOP-62 | 0.972 | 0.823 | 1 | 0.879 | 1.09 | 0.891 | 0.865 | 1.03 | 0.332 | 0.278 | 0.326 | 0.41 | 0.871 | 0.875 | 0.934 | 0.984 | 0.86 | 0.734 | 0.817 | 0.707
11 | LC-2-ad | 1.1 | 1.29 | 0.944 | 0.932 | 0.988 | 0.817 | 0.847 | 0.961 | 0.295 | 0.281 | 0.25 | 0.258 | 0.953 | 0.955 | 0.925 | 0.996 | 0.932 | 0.776 | 0.864 | 0.691
12 | LCLC-97TM1 | 0.838 | 0.545 | 0.757 | 0.404 | 0.922 | 0.553 | 0.9 | 1.08 | 0.164 | 0.137 | 0.193 | 0.166 | 0.836 | 0.713 | 0.749 | 0.763 | 0.596 | 0.243 | 0.489 | 0.586
13 | LK-2 | 0.21 | 0.171 | 0.21 | 0.159 | 1.09 | 0.981 | 0.83 | 0.777 | 0.265 | 0.262 | 0.299 | 0.342 | 0.191 | 0.221 | 0.187 | 0.199 | 0.267 | 0.187 | 0.198 | 0.184
14 | LOU-NH91 | 0.413 | 0.28 | 0.352 | 0.321 | 0.756 | 0.689 | 0.747 | 0.679 | 0.317 | 0.399 | 0.37 | 0.397 | 0.328 | 0.347 | 0.394 | 0.309 | 0.729 | 0.803 | 0.731 | 0.745
15 | LU99A | 0.261 | 0.251 | 0.261 | 0.277 | 1.11 | 1.1 | 1.12 | 0.904 | 0.182 | 0.165 | 0.167 | 0.224 | 0.268 | 0.221 | 0.228 | 0.291 | 0.307 | 0.323 | 0.329 | 0.312
